Measurements reported in ChEMBL document CHEMBL1133807, “Regiospecific phosphohydrolases from Dictyostelium as tools for the chemoenzymatic synthesis of the enantiomers D-myo-inositol 1,2,4-trisphosphate and D-myo-inositol 2,3,6-trisphosphate: non-physiological, potential analogues of biologically active D-myo-inositol 1,3,4-trisphosphate” (Bioorg Med Chem Lett, 2001).

Assay: Inhibition of recombinant human Inositol 3,4,5,6 tetrakisphosphate 1-kinase using [3H]Ins(3,4,5,6)[…] as substrate

O=P(O)(O)O[C@H]1[C@H](O)[C@@H](O)[C@H](OP(=O)(O)O)[C@@H](OP(=O)(O)O)[C@H]1O
IC50: ~4 µM

O=P(O)(O)O[C@H]1[C@H](O)[C@@H](O)[C@H](OP(=O)(O)O)[C@H](OP(=O)(O)O)[C@@H]1O
IC50: ~9 µM

O=P(O)(O)O[C@@H]1[C@@H](O)[C@H](O)[C@@H](OP(=O)(O)O)[C@@H](OP(=O)(O)O)[C@H]1O
IC50: ≥ 300 µM
